Here are results for nine molecules from ChEMBL document CHEMBL1201862, “PubChem BioAssay data set” (2004).

Experiment in all cases: DTP human tumour cell line panel, 48 h
The subject of assay [1] is CAKI-1.
Assay [2] has as its system OVCAR-8.
Assay [3] concerns UO-31.
The test system of assay [4] is NCI-H460.
Assay [5] concerns SK-MEL-28.
Assay [6] has as its system LOX IMVI.
The test system of assay [7] is SW-620.
Assay [8] concerns SNB-75.
Assay [9] concerns RPMI-8226.
For assay [10], the system named is SN12C.
Assay [11] has as its system UACC-257.
In assay [12] the test system is IGROV-1.
Assay [13] has as its system SF-295.
For assay [14], the system named is T47D.
Assay [15] deals with NCI-H522.
The test system of assay [16] is HL-60.
Assay [17] deals with NCI-H226.
Assay [18] relates to COLO 205.
For assay [19], the system named is SK-OV-3.
The subject of assay [20] is PC-3.

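96-well plates; 48 h exposure; 5 concentrations. Endpoints by linear interpolation between flanking doses. Not reached: highest tested concentration assigned. Abbreviation: GI50, concentration required for 50% inhibition of growth.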 The source made the active and inactive calls. No stated cut-off is given here; in the data, active = GI50 up to about 1.1 µM and inactive = higher.

One may read the GI50 as the concentration that inhibits growth by half.

Turning to `CC1(C)[C@H]2Cc3cc4nc5ccccn5c4cc3[C@@H]1C2`, the GI50 was 14.1 µM (inactive) in assay [1]; 14.6 µM (inactive) in assay [2]; 14 µM (inactive) in assay [3]; 18.4 µM (inactive) in assay [4]; 16 µM (inactive) in assay [5]; 19.6 µM (inactive) in assay [6]. Besides, the GI50 was 20.8 µM (inactive) in assay [7]; 13.6 µM (inactive) in [8]; 14.5 µM (inactive) in [9]; 19.2 µM (inactive) in assay [10]; 17.6 µM (inactive) in assay [11]; 19 µM (inactive) in [12]. Besides, the GI50 in assay [13] was 15.2 µM (inactive); in [14] it was 20.7 µM (inactive); in [15] it was 4.58 µM (inactive); in [16] it was 22.4 µM (inactive); in [17] it was 16.2 µM (inactive); in assay [18], 18.4 µM (inactive). Moreover, the GI50 was 17.3 µM (inactive) in assay [19] and 17.9 µM (inactive) in [20].

`CCOC(=O)[C@@H](Cc1ccc(CCl)cc1)NC(C)=O`: the GI50 in assay [1] is 25.6 µM (inactive); in assay [2] it was 50.8 µM (inactive); in assay [3], 19.2 µM (inactive); in [4] it was 19 µM (inactive); in assay [5], 27.5 µM (inactive); in [6], 19 µM (inactive). Besides, the GI50 in assay [7] is 31 µM (inactive); in assay [8], 26.6 µM (inactive); in assay [9], 22.6 µM (inactive); in assay [10] it was 24 µM (inactive); in assay [11], 17.2 µM (inactive); in [12], 23.7 µM (inactive). The GI50 in assay [13] is 32.8 µM (inactive); in [14], 26.3 µM (inactive); in assay [15], 17.6 µM (inactive); in assay [16], 27 µM (inactive); in [17], 28.1 µM (inactive); in assay [18], 18.1 µM (inactive). In addition, the GI50 in [19] is 98.2 µM (inactive); in assay [20], 29 µM (inactive).

`CCOc1ccc(/N=N/C2C(=O)N(C(=O)CC(=O)Nc3ccccc3OC)N=C2C)cc1` (stereo not given): the GI50 in assay [1] is > 36.7 µM (inactive); in assay [2], 59.8 µM (inactive); in [3] it was > 71.1 µM (inactive); in assay [4], 13.8 µM (inactive); in [5], > 100 µM (inactive); in assay [6] it was 29.7 µM (inactive). For the same molecule, the GI50 in assay [7] is 8 µM (inactive); in assay [8], 0.916 µM (active); in [9] it was 45 µM (inactive); in assay [10], > 100 µM (inactive); in [11], > 74.3 µM (inactive); in [12], 5.43 µM (inactive). The GI50 is > 36.6 µM (inactive) in [13]; > 65 µM (inactive) in assay [14]; 11 µM (inactive) in assay [15]; 4.17 µM (inactive) in [16]; > 52.1 µM (inactive) in [17]; > 100 µM (inactive) in assay [18]. Further, the GI50 in assay [19] was > 37.2 µM (inactive); in [20], > 100 µM (inactive).

As to `O=[N+]([O-])C1=Cc2cc(Cl)ccc2OC1c1cccc2ccccc12` (stereo not given), the GI50 in assay [1] is 0.366 µM (active); in assay [2], 0.614 µM (active); in assay [3] it was 1.26 µM (inactive); in assay [4], 1.7 µM (inactive); in [5], 1.34 µM (inactive); in [6] it was 0.29 µM (active). For the same molecule, the GI50 in assay [7] is 0.149 µM (active); in assay [8], 0.6 µM (active); in assay [9], 0.317 µM (active); in assay [10] it was 0.723 µM (active); in assay [11], 1.34 µM (inactive); in assay [12], 0.625 µM (active). Besides, the GI50 was 2.38 µM (inactive) in assay [13]; 0.442 µM (active) in assay [14]; 1.27 µM (inactive) in [15]; 3.83 µM (inactive) in assay [16]; 1.62 µM (inactive) in [17]; 0.719 µM (active) in assay [18]. Also, the results for the GI50 in [19] and in assay [20] were 1.61 µM (inactive) and 0.635 µM (active), respectively.

As to `CCOC(=O)CCC(NC(=O)c1ccc(Nc2cnc3ccc(C(F)(F)F)cc3n2)cc1)C(=O)OCC` (stereo not given), the GI50 in assay [1] was 12 µM (inactive); in assay [2], 8.81 µM (inactive); in assay [3] it was 45.5 µM (inactive); in assay [4], 8.02 µM (inactive); in assay [5], > 100 µM (inactive); in assay [6], 36.7 µM (inactive). The GI50 in [7] was > 70.6 µM (inactive); in assay [8], 8.24 µM (inactive); in [9] it was > 22.4 µM (inactive); in assay [10] it was > 83.8 µM (inactive); in [11] it was > 74.3 µM (inactive); in assay [12] it was 10.9 µM (inactive). Further, the GI50 in [13] is 31.1 µM (inactive); in [14] it was 5.45 µM (inactive); in [15], 65.6 µM (inactive); in assay [16], > 100 µM (inactive); in assay [17], 28.1 µM (inactive); in assay [18], > 100 µM (inactive). The GI50 in assay [19] is 16.5 µM (inactive); in assay [20] it was > 81.8 µM (inactive).

As for `O=S(=O)(c1cc(Cl)ccc1Cl)n1ccnc1`, the GI50 in assay [1] was 39.7 µM (inactive); in [2] it was 35.4 µM (inactive); in assay [3], 85.5 µM (inactive); in assay [4] it was 25.9 µM (inactive); in assay [5], > 100 µM (inactive); in assay [6], 37.7 µM (inactive). Also, the GI50 is 77.4 µM (inactive) in [7]; 41.8 µM (inactive) in [8]; 29 µM (inactive) in assay [9]; 30.2 µM (inactive) in assay [10]; 26.7 µM (inactive) in [11]; 41.5 µM (inactive) in assay [12]. Further, the GI50 in assay [13] was > 100 µM (inactive); in [14], 48.3 µM (inactive); in assay [15], 27.4 µM (inactive); in assay [16] it was 28.4 µM (inactive); in [17] it was 14.5 µM (inactive); in assay [18] it was 17.9 µM (inactive). In addition, the values for the GI50 in assay [19] and in assay [20] were > 100 µM (inactive) and 47.8 µM (inactive), respectively.

Consider `CCC(C)(C)c1ccc(Oc2cccc(C(=O)O)c2)cc1`, for which the GI50 in [1] was 65.6 µM (inactive); in assay [2], 69.7 µM (inactive); in [3], 48.1 µM (inactive); in assay [4] it was 44.4 µM (inactive); in [5], 81.8 µM (inactive); in assay [6], 50.4 µM (inactive). For the same molecule, the GI50 in assay [7] is 53 µM (inactive); in [8] it was 37.9 µM (inactive); in assay [9] it was 28.8 µM (inactive); in [10] it was 56.4 µM (inactive); in [11], > 100 µM (inactive); in assay [12] it was > 100 µM (inactive). The GI50 in [13] was 38.3 µM (inactive); in assay [14], 33.7 µM (inactive); in assay [15], 28.2 µM (inactive); in [16] it was 40.1 µM (inactive); in [17] it was 39.9 µM (inactive); in assay [18], 38.8 µM (inactive). In addition, the values for the GI50 in [19] and in assay [20] were 72.1 µM (inactive) and 55 µM (inactive), respectively.

Regarding `CCN(CC)C(=S)SS(=O)(=O)c1ccccc1[N+](=O)[O-]`, the GI50 in [1] was 22.3 µM (inactive); in [2], 22.9 µM (inactive); in [3], 14.5 µM (inactive); in assay [4], 25.1 µM (inactive); in assay [5], 18.7 µM (inactive); in assay [6], 17.3 µM (inactive). The GI50 in [7] is 20.9 µM (inactive); in [8], 76.2 µM (inactive); in assay [9], 15.2 µM (inactive); in assay [10], 22 µM (inactive); in assay [11], 36.8 µM (inactive); in [12], 0.504 µM (active). Also, the GI50 in assay [13] was 31.8 µM (inactive); in assay [14] it was 28.1 µM (inactive); in assay [15] it was 0.404 µM (active); in assay [16], 2.47 µM (inactive); in assay [17], > 60 µM (inactive); in assay [18], > 53.5 µM (inactive). In addition, the GI50 in [19] is > 71.4 µM (inactive); in assay [20] it was 54.5 µM (inactive).

For `COc1cccc2c1C(=O)c1c(O)c3c(c(O)c1C2=O)CC(O)(C(=O)CO)CC3OC1CC(N2CCOCC2C#N)C(O)C(C)O1` (stereo not given), the GI50 in assay [1] is < 0.0001 µM (active); in [2], < 0.0001 µM (active); in assay [3], > 0.01 µM (active); in assay [4] it was < 0.0001 µM (active); in [5] it was < 0.0001 µM (active); in assay [6], < 0.0001 µM (active). In addition, the GI50 is < 0.0001 µM (active) in assay [7]; > 0.01 µM (active) in [8]; < 0.0001 µM (active) in assay [9]; < 0.0001 µM (active) in assay [10]; < 0.0001 µM (active) in assay [11]; > 0.01 µM (active) in [12]. For the same molecule, the GI50 in assay [13], in [14], in assay [15], in assay [16], in [17] and in assay [18] was < 0.0001 µM (active) in each case. For the same molecule, the concentration for 50% growth inhibition (GI50) in [19] was > 0.01 µM (active); in assay [20], < 0.0001 µM (active).
